{
  "source": "patent US20050261201A1",
  "about": "“Method of reducing C-reactive protein using growth hormone secretagogues” (Rejuvenon Corporation, priority 2004, published 2005)",
  "tested_on": "human CRP",
  "assay": "CRP serum levels in CRP transgenic mice (ELISA)",
  "format": "in vivo, C57BL/6J congenic CRP transgenic mice that express human CRP",
  "conditions": "daily oral gavage for 14 days, serum at Day 15, vs saline vehicle, n=10",
  "procedure": "The experiment was conducted to determine the effect of the growth hormone secretagogue RC-1141 on CRP serum levels. The compound RC-1141 was tested in C57BL/6J congenic CRP transgenic mice that express human CRP.\nThe establishment of a breeding colony of CRPtg C57BL/6J congenic mice has been described in Szalai, A. et al., “Human C-Reactive Protein is Protective Against Fatal Streptococcus pneumoniae Infection in Transgenic Mice,” J. Immunol. 155:2557-2563 (1995), the entire content of which is hereby incorporated by reference. The breeding colony was established by mating transgenic founder males with normal female C57BL/6J mice. The normal female C57BL/6J mice were obtained from Charles River Laboratories (Boston, Mass.). Transgenic founders were obtained from Dr. Ulrich Ruther (Institut für Molekularbiologie, Medizinische Hochschule, Hannover, Germany), and were descendants of transgenic mice originally described by Ciliberto, G., R. Arcone, E. F. Wagner, U. Rüther, “Inducible and tissue-specific expression of human C-reactive protein in transgenic mice” EMBO J, 6:4017 (1987), the entire content of which is hereby incorporated by reference. […]\nCRP serum levels were measured using ELISA. […]\nConcentration was determined by the ELISA described above. […]",
  "data": [
    {"smiles": "CN(C(=O)/C=C/CC1(N)CCC1)[C@H](Cc1ccc(-c2ccccc2)cc1)C(=O)N(C)[C@H](Cc1ccccc1)C(=O)N1CCC(O)CC1", "note": "[RC-1141, (2E)-4-(1-aminocyclobutyl)but-2-enoic acid N-((1R)-1-{N-[(1R)-1-benzyl-2-(4-hydroxypiperidin-1-yl)-2-oxoethyl]-N-methylcarbomoyl}-2-(biphenyl-4-yl)ethyl)-N-methylamide]", "values": [
      {"measurement": "CRP serum levels", "setting": "5 mg/kg body weight (low dose)", "result": "significant decrease"},
      {"measurement": "CRP serum levels", "setting": "10 mg/kg body weight (high dose)", "result": "significant decrease"}
    ]}
  ]
}
